“And” between values parts separate entries of the source, which are not always exact repeats. Equal values may be shown once. Inconclusive results and toxic doses are left out. The calls were made as follows: active = survival T/C of 150% or more; inactive = T/C below 125% in these data.
Test system: P388 leukemia ip, CD2F1 mice, survival T/C
Test: NCI In Vivo Anticancer Drug Screen. Data for tumor model P388 Leukemia (intraperitoneal) in CD2F1 (CDF1) mice
Settings: endpoint: median survival time, higher = longer survival
Summary of the method: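 Mice carrying the transplanted tumor received test compound or vehicle. Survival was recorded in each group, and the value is the treated-group measurement divided by that of the vehicle-treated control group.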

[1] = dose: 60.0 mg/kg/injection, schedule: Q01DX005 (ip), vehicle: saline
[2] = dose: 120.0 mg/kg/injection, schedule: Q01DX005 (ip), vehicle: saline
[3] = dose: 240.0 mg/kg/injection, schedule: Q01DX005 (ip), vehicle: saline
[4] = dose: 60.0 mg/kg/injection, schedule: Q01DX005 (ip), vehicle: saline with Tween-80
[5] = dose: 120.0 mg/kg/injection, schedule: Q01DX005 (ip), vehicle: saline with Tween-80
[6] = dose: 240.0 mg/kg/injection, schedule: Q01DX005 (ip), vehicle: saline with Tween-80
[7] = dose: 50.0 mg/kg/injection, schedule: Q01DX005 (ip), vehicle: saline with Tween-80
[8] = dose: 100.0 mg/kg/injection, schedule: Q01DX005 (ip), vehicle: saline with Tween-80
[9] = dose: 200.0 mg/kg/injection, schedule: Q01DX005 (ip), vehicle: saline with Tween-80
[10] = dose: 50.0 mg/kg/injection, schedule: Q01DX009 (ip), vehicle: Klucel (hydroxypropylcellulose) (HPC)
[11] = dose: 100.0 mg/kg/injection, schedule: Q01DX009 (ip), vehicle: Klucel (hydroxypropylcellulose) (HPC)
[12] = dose: 200.0 mg/kg/injection, schedule: Q01DX009 (ip), vehicle: Klucel (hydroxypropylcellulose) (HPC)
[13] = dose: 50.0 mg/kg/injection, schedule: Q01DX005 (ip), vehicle: Klucel (hydroxypropylcellulose) (HPC)
[14] = dose: 6.25 mg/kg/injection, schedule: Q01DX005 (ip), vehicle: Klucel (hydroxypropylcellulose) (HPC)
[15] = dose: 12.5 mg/kg/injection, schedule: Q01DX005 (ip), vehicle: Klucel (hydroxypropylcellulose) (HPC)
[16] = dose: 25.0 mg/kg/injection, schedule: Q01DX005 (ip), vehicle: Klucel (hydroxypropylcellulose) (HPC)
[17] = dose: 50.0 mg/kg/injection, schedule: Q01DX009 (ip), vehicle: saline with Tween-80
[18] = dose: 100.0 mg/kg/injection, schedule: Q01DX009 (ip), vehicle: saline with Tween-80
[19] = dose: 100.0 mg/kg/injection, schedule: Q01DX005 (ip), vehicle: Klucel (hydroxypropylcellulose) (HPC)
[20] = dose: 25.0 mg/kg/injection, schedule: Q01DX009 (ip), vehicle: Klucel (hydroxypropylcellulose) (HPC)
[21] = dose: 50.0 mg/kg/injection, schedule: Q01DX009 (ip), vehicle: saline
[22] = dose: 12.5 mg/kg/injection, schedule: Q01DX009 (ip), vehicle: saline with Tween-80
[23] = dose: 25.0 mg/kg/injection, schedule: Q01DX009 (ip), vehicle: saline with Tween-80

Measured: T/C

NC(=O)C(CCCCNc1c(C(=O)O)cc([N+](=O)[O-])cc1[N+](=O)[O-])NC(=O)c1ccccc1 (stereo not given)
inactive: [1] 100 % of control | [2] 105 % of control | [3] 100 % of control

CSCSCC(CO)NC(=O)C(Cl)Cl (stereo not given)
inactive: dose: 50.0 mg/kg/injection, schedule: Q01DX009 (ip), vehicle: water 102 % of control | dose: 200.0 mg/kg/injection, schedule: Q01DX009 (ip), vehicle: water 106 % of control | dose: 400.0 mg/kg/injection, schedule: Q01DX009 (ip), vehicle: water 113 % of control

O=C1OC2C(O)COC23OC(O)CCC13O (stereo not given)
inactive: dose: 15.0 mg/kg/injection, schedule: Q01DX005 (ip), vehicle: saline with Tween-80 100 % of control | dose: 30.0 mg/kg/injection, schedule: Q01DX005 (ip), vehicle: saline with Tween-80 102 % of control | [4] 102 % of control | [1] 104 % of control | [5] 105 % of control | [2] 102 % of control | [6] 105 % of control | [3] 102 % of control

CC1(C)OC2C3CC(C2O1)C1C3C2(Cl)CC1(Cl)C(Cl)=C2Cl (stereo not given)
inactive: [7] 106 % of control | [8] 99 % of control | [9] 101 % of control

Nc1cc2c(cc1O)C1C(C3C2C2(Cl)C(Cl)C(Cl)C3(Cl)C2(Cl)Cl)C2(Cl)C(Cl)C(Cl)C1(Cl)C2(Cl)Cl (stereo not given)
inactive: [10] 100 % of control | [11] 100 % of control | [12] 96 % of control

COC(=O)Nc1cn2ccsc2n1
inactive: [7] 105 % of control | [8] 102 % of control | [9] 105 % of control

COc1cc2c(cc1C(C)=O)C=CC(C)(C)O2
inactive: dose: 22.5 mg/kg/injection, schedule: Q01DX005 (ip), vehicle: Klucel (hydroxypropylcellulose) (HPC) 100 % of control | dose: 45.0 mg/kg/injection, schedule: Q01DX005 (ip), vehicle: Klucel (hydroxypropylcellulose) (HPC) 100 % of control | dose: 90.0 mg/kg/injection, schedule: Q01DX005 (ip), vehicle: Klucel (hydroxypropylcellulose) (HPC) 94 % of control | dose: 180.0 mg/kg/injection, schedule: Q01DX005 (ip), vehicle: Klucel (hydroxypropylcellulose) (HPC) 98 % of control

CCOC(=O)Nc1ccc(C2SCCN2C(=O)NC)cc1 (stereo not given)
inactive: [4] 109 % of control | [5] 103 % of control | [6] 100 % of control

c1ccc(C[N+]23CCC(CC2)CC3)cc1
inactive: dose: 3.13 mg/kg/injection, schedule: Q04DX003 (ip), vehicle: saline 95 % of control | dose: 6.25 mg/kg/injection, schedule: Q04DX003 (ip), vehicle: saline 95 % of control | dose: 12.5 mg/kg/injection, schedule: Q04DX003 (ip), vehicle: saline 100 % of control

CN1CC(O)C2=CC(=O)C(=O)C(I)=C21 (stereo not given)
inactive: dose: 30.0 mg/kg/injection, schedule: Q01DX005 (ip), vehicle: saline + Tween-80 + alcohol 108 % of control | [13] 109 % of control | dose: 60.0 mg/kg/injection, schedule: Q01DX005 (ip), vehicle: saline + Tween-80 + alcohol 101 % of control | dose: 240.0 mg/kg/injection, schedule: Q01DX005 (ip), vehicle: saline + Tween-80 + alcohol 114 % of control

CC1CC12C(=O)C1=C(C(=O)C2O)C2(C)CCCC(C)(COC=O)C2C(O)C1OC=O (stereo not given)
inactive: [14] 105 % of control | [15] 105 % of control | [16] 115 % of control | [13] 101 % of control

Cc1ccc(Cl)c2ccccc12
inactive: [17] 113 % of control | [18] 108 % of control

Cn1c(-c2ccccc2)c(COC(=O)NC2CCCCC2)c(COC(=O)NC2CCCCC2)c1-c1ccc(Cl)cc1
inactive: dose: 3.13 mg/kg/injection, schedule: Q01DX009 (ip), vehicle: distilled water + Tween-80 109 % of control | dose: 6.25 mg/kg/injection, schedule: Q01DX009 (ip), vehicle: distilled water + Tween-80 105 % of control
active: dose: 50.0 mg/kg/injection, schedule: Q01DX009 (ip), vehicle: distilled water + Tween-80 178 % of control | dose: 75.0 mg/kg/injection, schedule: Q01DX009 (ip), vehicle: distilled water + Tween-80 175 % of control

CC(C)=Nc1c(C(N)=O)c(-c2ccccc2)c(-c2ccccc2)n1-c1ccccc1
inactive: [17] 107 % of control | [18] 107 % of control | dose: 200.0 mg/kg/injection, schedule: Q01DX009 (ip), vehicle: saline with Tween-80 98 % of control

NC(=O)NC(c1ccc(O)cc1)c1cc2c(cc1O)OCO2 (stereo not given)
inactive: dose: 60.0 mg/kg/injection, schedule: Q01DX005 (ip), vehicle: Klucel + Tween-80 86 % of control | dose: 120.0 mg/kg/injection, schedule: Q01DX005 (ip), vehicle: Klucel + Tween-80 86 % of control | dose: 240.0 mg/kg/injection, schedule: Q01DX005 (ip), vehicle: Klucel + Tween-80 86 % of control

COCOc1c(OC)c(C2(O)C(=O)N(C)c3ccccc32)c(OCOC)c(OC)c1C1(O)C(=O)N(C)c2ccccc21 (stereo not given)
inactive: [4] 100 % of control | [5] 89 % of control | [6] 88 % of control

Nc1nc(N)nc(-c2cc(Br)c(N)c(Br)c2)n1
inactive: [7] 95 % of control | [8] 101 % of control | [9] 93 % of control

c1ccc(N=C(Nc2ccccc2)C(=Nc2ccccc2)Nc2ccccc2)cc1
inactive: [13] 100 % of control | [19] 96 % of control | dose: 200.0 mg/kg/injection, schedule: Q01DX005 (ip), vehicle: Klucel (hydroxypropylcellulose) (HPC) 98 % of control

O=C1/C(=C/c2ccc(Cl)cc2)SC(=S)N1C1CC1
inactive: [14] 91 % of control | [15] 96 % of control | [16] 95 % of control | [13] 89 % of control

CN(C)C1CCc2ccc3ccccc3c2C1=O (stereo not given)
inactive: [13] 98 % of control | [19] 103 % of control

O=C(O)c1cccc2c1Oc1c(cccc1C(=O)O)S2
inactive: [7] 98 % of control | [8] 107 % of control | [9] 108 % of control

NN1C(=O)CC(c2cccc(Cl)c2)C1=O (stereo not given)
inactive: [4] 92 % of control | [5] 92 % of control | [6] 92 % of control

C=CCOP1(OCC=C)=NP(OCC=C)(OCC=C)=NP(OCC=C)(OCC=C)=N1
inactive: [7] 96 % of control | [8] 100 % of control | [9] 102 % of control

CCOc1ccc(OCC)c(C(O)C(C)NC(C)C)c1 (stereo not given)
inactive: dose: 6.25 mg/kg/injection, schedule: Q01DX009 (ip), vehicle: Klucel (hydroxypropylcellulose) (HPC) 101 % of control | dose: 12.5 mg/kg/injection, schedule: Q01DX009 (ip), vehicle: Klucel (hydroxypropylcellulose) (HPC) 100 % of control | [20] 99 % of control and 115 % of control

CC(=O)Nc1c(C)cccc1C
inactive: [20] 93 % of control | [10] 100 % of control | [11] 97 % of control | [12] 103 % of control

c1ccc(-c2[nH]c3ccccc3c2-c2c(-c3ccccc3)[nH]c3ccccc23)cc1
inactive: [21] 100 % of control | dose: 100.0 mg/kg/injection, schedule: Q01DX009 (ip), vehicle: saline 96 % of control | dose: 200.0 mg/kg/injection, schedule: Q01DX009 (ip), vehicle: saline 98 % of control

CC(C)(C)C1=CC(=CC=C2C=CN(CCCCCCCCCCCO)C=C2)C=C(C(C)(C)C)C1=O
inactive: [4] 108 % of control | [5] 107 % of control | [6] 110 % of control

O=C(N=Nc1c(O)[nH]c2ccccc12)C(=O)Nc1cccc(C(F)(F)F)c1
inactive: [22] 92 % of control | [23] 89 % of control | [17] 86 % of control

O=C(O)c1c[nH]c2cc(OCc3ccc(Cl)c(Cl)c3)ccc2c1=O
inactive: [22] 95 % of control | [23] 91 % of control | [17] 94 % of control | [21] 92 % of control

COC1CC(=O)C2(C)C3CCC4(C)C(C(C)C5CC(C)=C(CO)C(=O)O5)CCC4C3CC3OC32C1O (stereo not given)
inactive: dose: 10.12 mg/kg/injection, schedule: Q01DX009 (ip), vehicle: saline + alcohol 105 % of control | dose: 20.25 mg/kg/injection, schedule: Q01DX009 (ip), vehicle: saline + alcohol 96 % of control | dose: 40.5 mg/kg/injection, schedule: Q01DX009 (ip), vehicle: saline + alcohol 94 % of control
